Columns and labels:
mdx mice = test: Metabolic cages (indirect calorimetry), mdx mice, 40 weeks; format: in vivo, mouse; settings: weekly prednisone
Protocol: (§1) Metabolic cages. VO2 (ml/h/kg) and energy expenditure to body weight (kcal/h/kg) were assessed via indirect calorimetry using the TSE Automated Phenotyping System PhenoMaster (TSE system, Chesterfield, Mo.). Mice were singly housed in their home cages in an enclosed environmental chamber (part of the TSE system) with controlled temperature and light/dark cycles (12 hours each; 6 AM-6 PM). […] Measurements of CO2 production and O2 consumption occurred using the attached gas analyzer to assess energy expenditure. In addition, physical activity in three dimensions was monitored via infrared beam breaks through frames mounted on the perimeter of the metabolic cages. Enrichment items were omitted to avoid insulation from sensors and infrared light beam path obstruction. Results are expressed as 12 hour-period values (light/dark; 10 values per mouse). Metabolic cage assays were conducted blinded to treatment groups.

[1] = test system: Wildtype (WT) mice fed high-fat chow; test: Diet-induced obesity, wildtype mice on high-fat chow, 12 weeks; format: in vivo, mouse
Protocol: (G) At the end of treatment, quadriceps muscles were isolated and exposed ex vivo to either 10 mM glucose or 1 mM palmitate-BSA in the presence of 1×/min electrical stimulation. […] Curves depict interquartile range and single values; histograms depict single values and mean±s.e.m.; n=10 mice/group in A-E; n=3 mice/group in F-H. *, P<0.05 vs same-diet vehicle control, 1-way ANOVA with Tukey's multi-comparison; #, P<0.05 vs vehicle, 2-way ANOVA test.
as §1
2-NBDG uptake assay and glycemia/lactate monitoring. 2-NBDG uptake assay in live myofibers was conducted adapting previously reported conditions (Zou et al., 2005). FDB muscles were collected and carefully treated with collagenase type II and hand pipetting to liberate single myofibers, following reported procedures (Demonbreun and McNally, 2015). Myofibers from two FDB muscles were collected in 1 ml Ringer's solution (for 1 l, 7.2 g NaCl, 0.17 g CaCl2, 0.37 g KCl; pH, 7.4). 200 μl of myofiber suspension were dispensed per well of chambered coverglass (#155382; Thermo Fisher, Waltham, Mass.) and imaged as baseline condition for both transmitted light (1 ms integration) and green fluorescent channels (100 ms integration) at the Zeiss Axio Observer A1 microscope, using 20× short-range objective and the ZEN 2 software (version 2011; Zeiss, Jena, Germany). Immediately after baseline imaging, myofibers were supplemented with 2 mM glucose (#D8375-1 g; Millipore Sigma, St Louis, Mo.) and 50 μM 2-NBDG (#11046; Cayman Chemical, Ann Arbor, Mich.). For insulin-dependent uptake, insulin (#12585014; Thermo Fisher, Waltham, Mass.) was added to a final […] concentration. To control Glut1-/Glut4-dependent uptake, negative control wells were further supplemented with 10 μM cytochalasin B (#C6762; Millipore Sigma, St Louis, Mo.). Myofibers were incubated for 30 minutes in a 37° C./10% CO2 incubator, then washed twice in Ringer's solution and immediately imaged in fresh Ringers' solution, using the same integration and objective settings used for pre-incubation pictures. 2-NBDG uptake was quantitated as relative fluorescent units, calculated as intra-myofiber fluorescence after incubation subtracted of average baseline fluorescence. Fluorescence intensity was quantitated through serial analysis of acquired images (3 areas of approximately 85 μm^2 were analyzed for average fluorescence value per myofiber; >10 myofibers were analyzed per mouse) with ImageJ software (Schneider et al., 2012). All glucose uptake assays were conducted blinded to treatment groups.
Glucose was measured in blood (first drop from tail venipuncture) or serum (5 μl of 1:2 dilution) with an AimStrip Plus glucometer system (Germaine Laboratories, San Antonio, Tex.) and expressed as mg/dl values. Lactate was measured in blood (second drop from tail venipuncture) or serum (5 μl of 1:2 dilution) with a Lactate Plus reader (Nova Biomedical, Waltham, Mass.) and expressed as mM values. Fasting glycemia was measured in mice after 4 hours fasting (7 AM-11 AM). […]

[2] = WT mice on high-fat chow, weekly prednisone, 12 weeks

`C[C@]12C=CC(=O)C=C1CC[C@@H]1[C@@H]2C(=O)C[C@@]2(C)[C@H]1CC[C@]2(O)C(=O)CO` [prednisone, Prednisone] was tested, and the “oxygen consumption (VO2) and energy expenditure during nocturnal activity” value (mdx mice) was “increased”, the “ATP and phosphocreatine production of quadriceps ex vivo” value ([1]; 10 mM glucose or 1 mM palmitate-BSA, normal and high-fat diet, weekly prednisone 12 weeks) was “higher levels” and the “gain of body weight” value ([1]; WT mice on high-fat chow, once weekly prednisone 1 mg/kg i.p., 12 weeks, vs vehicle) was “reduced”. For the same molecule, the “accrual of whole-body fat mass and adipocyte mass in the ventral fat pad” value [1, 2] was “reduced”, the “endpoint grip strength and running endurance” value [1, 2] was “significant improvement” and the “gain of hyperglycemia (fasting blood glucose over time)” value [1, 2] was “reduced”. The “retention of lean mass, myofiber mass and specific force” value [1, 2] was “improving”, the “ex vivo uptake of 2-NBDG in freshly isolated myofibers” value ([1]; WT mice on high-fat chow, weekly prednisone, 12 weeks, absence and presence of insulin) was “improved” and the “body-wide glucose homeostasis (glucose and insulin tolerance tests)” value ([1]; WT mice on high-fat chow, weekly prednisone, 12 weeks, endpoint) was “improved”. For the same molecule, the “oxidative capacity and energy expenditure in the active phase (metabolic cage)” value ([1]; normal or high-fat diet chow, weekly prednisone, 12 weeks) was “increased”.

Reference: patent US20220062299A1, “USE OF GLUCOCORTICOID STEROIDS IN PREVENTING AND TREATING CONDITIONS OF MUSCLE WASTING, AGING AND METABOLIC DISORDER” (NORTHWESTERN UNIVERSITY, priority 2018, published 2022)
